# Read-outs that look alike come from different tables or passages of the source.
# How the values were obtained:
# [1] = Dynamic vapor sorption (DVS); format: physicochemical; design: key to Hysteresis: % change in weight (DVS sorption/desorption); details: for Hysteresis: in % (unit assumed); for state of post-DVS sample: after sorption/desorption cycle 5%-95%-5% relative humidity; for Desorp Mass Change: desorption; for gained moisture retained: following desorption from 95% to 5% relative humidity; for Sorp Mass Change: sorption
# From the text: In an embodiment, ethanolamine gemfibrozil salt Form A has a low hygroscopicity below approximately 55% relative humidity, meaning less than 0.5% increases in weight below approximately 55% relative humidity, which may be determined using dynamic vapor sorption (DVS) to detect changes in weight of the salt in response to changes in relative humidity. […] Table 6 lists the percent change in weight of ethanolamine gemfibrozil salt Form A (Sorp Mass Change (%)) in 10% relative humidity increments from its initial weight at 5% relative humidity to its weight at 95% relative humidity.
# Dynamic Vapor Sorption (DVS)—Moisture sorption/desorption data were collected on a SMS Intrinsic Dynamic Vapor Sorption Analyzer. Sodium chloride and PVP were used as calibration standard. Samples were not dried prior to analysis. Sorption and desorption data were collected over a range from 5% to 95% relative humidity at 10% relative humidity increments under a nitrogen purge. The equilibrium criterion used for analysis was less than 0.0100% weight change in 5 minutes with a maximum equilibration time of 3 hours. Data were not corrected for the initial moisture content of the samples.
# [2] = XRPD form check after humidity stress; format: physicochemical
# From the text: In an example, an L-arginine gemfibrozil salt was stressed for one day at 75% relative humidity.
# The observed peaks of the post-DVS salt were consistent with the pattern of peaks observed for an L-lysine gemfibrozil salt Material A prepared prior to exposure to increased relative humidities (FIG. 15).
# X-Ray Powder Diffraction (XRPD)—XRPD patterns were collected with a PANalytical X'Pert PRO MPD or PANalytical Empyrean diffractometers using an incident beam of Cu radiation produced using an Optix long, fine-focus source. An elliptically graded multilayer mirror was used to focus Cu Kα X-rays through the specimen and onto the detector. Prior to analysis, a silicon specimen (NIST SRM 640e) was analyzed to verify the observed position of the Si 111 peak is consistent with the NIST-certified position. A specimen of the sample was sandwiched between 3 μm thick films and analyzed in transmission geometry. A beam-stop, short antiscatter extension, and antiscatter knife edge were used to minimize the background generated by air. Soller slits for the incident and diffracted beams were used to minimize broadening from axial divergence. Diffraction patterns were collected using a scanning position-sensitive detector (X'Celerator) located […] from the specimen and Data Collector software v. 5.5.
# [3] = equivalent to 100 mg free form in 250 ml pH 7.3 artificial saliva, 37° C., 50 RPM
# Description: Dissolution experiments using the salt forms of gemfibrozil were performed using a VanKel VK7010 dissolution apparatus equipped with a VK750D heater/circulator. The 2 paddle method was used. Dissolution medium was 250 mL of artificial saliva, pH 7.30. The temperature was maintained at 37° C. The paddles were rotated at 50 RPM. […] Samples aliquots of 2 mL were taken at 5, 10, and 15 minutes and filtered immediately using a […] Nylon membrane syringe filter. Samples were analyzed by HPLC.
# [4] = Thermogravimetric analysis (TGA); format: physicochemical
# Description: Thermogravimetric Analysis (TGA)—TG analysis was performed using a Mettler-Toledo TGA/DSC3+ analyzer. Temperature and enthalpy adjustments were performed using indium, tin, and zinc, and then verified with indium. The balance was verified with calcium oxalate. The sample was placed in an open aluminum pan. The pan was hermetically sealed, the lid pierced, then inserted into the TG furnace. A weighed aluminum pan configured as the sample pan was placed on the reference platform. The furnace was heated under nitrogen. The data acquisition parameters for the thermogram are determined.
# physchem = details: pH 7.3, fassgf or other biorelevant, thermodynamic from solid
# Description: The solution was then mixed by vortexing or sonicating, until complete dissolution was observed.
# Kinetic Solubilities/Visual Solubility Assessment—Weighed samples were treated with aliquots of solvent at ambient temperature unless otherwise indicated. Samples were typically sonicated between additions to facilitate dissolution. Complete dissolution was observed through visual inspection. Solubilities were calculated based on the total amount of solvent added to achieve complete dissolution and may be greater than the value reported due to incremental solvent addition and the inherent kinetics of dissolution. […] These values are approximate. These values may also over-represent the amount of solvent required given that solvent was added incrementally. Approximately 10 mg of gemfibrozil salt was weighed into a vial. Artificial saliva was added to the vial until complete dissolution was observed. Each volume addition was followed by vortex mixing or sonication and observation on the presence of solids was noted.
# Solubility descriptors were used as follows—Practically insoluble refers to a compound that is soluble at less than 0.1 mg/ml in solution. […] Slightly soluble, refers to a compound that is soluble in an aqueous solution from 1 mg/ml to 10 mg/ml. Sparingly soluble, refers to a compound that is soluble in an aqueous solution from 10 mg/ml to 30 mg/ml. […]
# [5] = cited from earlier work
# [6] = Dissolution of free-form gemfibrozil in artificial saliva (USP <711> apparatus 2, HPLC); format: physicochemical; details: 4 hours; 600 mg in 900 mL pH 7.3 artificial saliva, 100 rpm, 37° C. (FIG. 1)
# Description: USP <711> dissolution apparatus 2 (paddle method) was used. Dissolution medium was 900 mL of artificial saliva, pH 7.30. The temperature was maintained at 37° C. The paddles were rotated at 100 RPM. Six-hundred milligrams of gemfibrozil was added into each vessel at t=0. Samples aliquots of 2 mL were taken at 0.25, 0.5, 1, 2, 3, and 4 hours and filtered immediately using a 0.45 μm Nylon membrane syringe filter, whereby the filtrate was diluted at a 1:1 ratio with methanol and then vortexed. Samples were analyzed by HPLC.
# [7] = sorption from 5% to 85% relative humidity
# [8] = sorption from 85% to 95% relative humidity
# [9] = equilibrium, 1.5 ml pH 7.3 artificial saliva, 16 hours
structure (smiles),measurement,setting,value
Cc1ccc(C)c(OCCCC(C)(C)C(=O)O)c1.N=C(N)NCCCC(N)C(=O)O [Arginine Material A],Hysteresis,[1]; Target RH 15.0%,6.09
same,Hysteresis,[1]; Target RH 25.0%,6.79
same,Hysteresis,[1]; Target RH 35.0%,7.73
same,Hysteresis,[1]; Target RH 45.0%,9.27
same,Hysteresis,[1]; Target RH 55.0%,11.46
same,Hysteresis,[1]; Target RH 65.0%,14.60
same,Hysteresis,[1]; Target RH 75.0%,18.97
same,Hysteresis,[1]; Target RH 85.0%,25.96
same,state of post-DVS sample,[1],deliquesced
same,Desorp Mass Change,[1]; Target RH 5.0%,5.55%
same,Desorp Mass Change,[1]; Target RH 15.0%,6.12%
same,Desorp Mass Change,[1]; Target RH 25.0%,6.85%
same,Desorp Mass Change,[1]; Target RH 35.0%,7.89%
same,Desorp Mass Change,[1]; Target RH 45.0%,9.51%
same,Desorp Mass Change,[1]; Target RH 55.0%,11.75%
same,Desorp Mass Change,[1]; Target RH 65.0%,14.95%
same,Desorp Mass Change,[1]; Target RH 75.0%,19.47%
same,Desorp Mass Change,[1]; Target RH 85.0%,26.79%
same,Desorp Mass Change,[1]; Target RH 95.0%,45.96%
same,gained moisture retained,[1],approximately 5.6%
same,percent increase in mass,[1]; [7],approximately 0.8%
same,percent change in mass,[1]; [8],45.1%
same,Sorp Mass Change,[1]; Target RH 5.0%,0.00%
same,Sorp Mass Change,[1]; Target RH 15.0%,0.03%
same,Sorp Mass Change,[1]; Target RH 25.0%,0.06%
same,Sorp Mass Change,[1]; Target RH 35.0%,0.16%
same,Sorp Mass Change,[1]; Target RH 45.0%,0.25%
same,Sorp Mass Change,[1]; Target RH 55.0%,0.28%
same,Sorp Mass Change,[1]; Target RH 65.0%,0.35%
same,Sorp Mass Change,[1]; Target RH 75.0%,0.50%
same,Sorp Mass Change,[1]; Target RH 85.0%,0.83%
same,Sorp Mass Change,[1]; Target RH 95.0%,45.96%
same,form change by XRPD,[2]; stressed for one day at 75% relative humidity,did not undergo a form change
same,Average % Gemfibrozil dissolved,[3]; 5 min,96.64%
same,Average % Gemfibrozil dissolved,"[3]; 5 min, listed as L-arginine gemfibrozil salt Material A",96.6%
same,Average % Gemfibrozil dissolved,[3]; 10 min,94.40%
same,Average % Gemfibrozil dissolved,[3]; 15 min,94.27%
same,temperature until which weight does not decrease (may be the onset of decomposition),[4],approximately 207 °C
same,weight loss,[4]; between 44° C. and 125° C.,approximately 0.1%
same,Observations,[9],No excess solids
Cc1ccc(C)c(OCCCC(C)(C)C(=O)O)c1.NCCO [Ethanolamine Form A],Hysteresis,[1]; Target RH 15.0%,2.60
same,Hysteresis,[1]; Target RH 25.0%,3.56
same,Hysteresis,[1]; Target RH 35.0%,4.87
same,Hysteresis,[1]; Target RH 45.0%,6.67
same,Hysteresis,[1]; Target RH 55.0%,9.19
same,Hysteresis,[1]; Target RH 65.0%,1.78
same,Hysteresis,[1]; Target RH 75.0%,0.64
same,Hysteresis,[1]; Target RH 85.0%,4.16
same,state of post-DVS sample,[1],deliquesced
same,Desorp Mass Change,[1]; Target RH 5.0%,1.92%
same,Desorp Mass Change,[1]; Target RH 15.0%,2.60%
same,Desorp Mass Change,[1]; Target RH 25.0%,3.56%
same,Desorp Mass Change,[1]; Target RH 35.0%,4.88%
same,Desorp Mass Change,[1]; Target RH 45.0%,6.70%
same,Desorp Mass Change,[1]; Target RH 55.0%,9.29%
same,Desorp Mass Change,[1]; Target RH 65.0%,12.93%
same,Desorp Mass Change,[1]; Target RH 75.0%,18.56%
same,Desorp Mass Change,[1]; Target RH 85.0%,31.49%
same,Desorp Mass Change,[1]; Target RH 95.0%,45.05%
same,gained moisture retained,[1],approximately 2%
same,percent increase in mass,[1]; sorption from 5% to 55% relative humidity,approximately 0.1%
same,percent change in mass,[1]; sorption from 55% to 95% relative humidity,44.9%
same,Sorp Mass Change,[1]; Target RH 5.0%,0.00%
same,Sorp Mass Change,[1]; Target RH 15.0%,0.00%
same,Sorp Mass Change,[1]; Target RH 25.0%,0.00%
same,Sorp Mass Change,[1]; Target RH 35.0%,0.01%
same,Sorp Mass Change,[1]; Target RH 45.0%,0.03%
same,Sorp Mass Change,[1]; Target RH 55.0%,0.10%
same,Sorp Mass Change,[1]; Target RH 65.0%,11.14%
same,Sorp Mass Change,[1]; Target RH 75.0%,17.93%
same,Sorp Mass Change,[1]; Target RH 85.0%,27.33%
same,Sorp Mass Change,[1]; Target RH 95.0%,45.05%
same,Average % Gemfibrozil dissolved,[3]; 5 min,97.30%
same,Average % Gemfibrozil dissolved,"[3]; 5 min, listed as ethanolamine gemfibrozil salt Form A",97.3%
same,Average % Gemfibrozil dissolved,[3]; 10 min,94.80%
same,Average % Gemfibrozil dissolved,[3]; 15 min,95.84%
same,temperature until which weight does not decrease (may be the onset of decomposition),[4],approximately 140 °C
same,Observations,pH 7.3,No excess solids
"Cc1ccc(C)c(OCCCC(C)(C)C(=O)O)c1 [Free Form, 5-(2,5-dimethylphenoxy)-2,2-dimethyl-pentanoic acid]",solubility,physchem,< 1100 µg/mL
same,solubility,[5]; in DMSO,~16000 µg/mL
same,solubility,[5]; in a 1:1 solution of ethanol:PBS,approximately 0.5 mg/mL
same,solubility,[5]; in ethanol,approximately 30 mg/ml
same,solubility,[5]; in water,approximately 0.03 mg/ml
same,average % of free-form gemfibrozil dissolved,[6],78%
Cc1ccc(C)c(OCCCC(C)(C)C(=O)O)c1.NCCCCC(N)C(=O)O [Lysine Material A],Hysteresis,[1]; Target RH 15.0%,2.48
same,Hysteresis,[1]; Target RH 25.0%,3.61
same,Hysteresis,[1]; Target RH 35.0%,2.69
same,Hysteresis,[1]; Target RH 45.0%,2.54
same,Hysteresis,[1]; Target RH 55.0%,2.30
same,Hysteresis,[1]; Target RH 65.0%,2.09
same,Hysteresis,[1]; Target RH 75.0%,3.16
same,Hysteresis,[1]; Target RH 85.0%,13.47
same,state of post-DVS sample,[1],deliquesced
same,Desorp Mass Change,[1]; Target RH 5.0%,2.09%
same,Desorp Mass Change,[1]; Target RH 15.0%,2.53%
same,Desorp Mass Change,[1]; Target RH 25.0%,2.81%
same,Desorp Mass Change,[1]; Target RH 35.0%,3.09%
same,Desorp Mass Change,[1]; Target RH 45.0%,3.45%
same,Desorp Mass Change,[1]; Target RH 55.0%,4.09%
same,Desorp Mass Change,[1]; Target RH 65.0%,5.25%
same,Desorp Mass Change,[1]; Target RH 75.0%,9.49%
same,Desorp Mass Change,[1]; Target RH 85.0%,27.95%
same,Desorp Mass Change,[1]; Target RH 95.0%,38.97%
same,gained moisture retained,[1],approximately 2.1%
same,percent increase in mass,[1]; sorption from 5% to 25% relative humidity,approximately 0.2%
same,percent increase in mass,[1]; [7],approximately 14.5%
same,percent change in mass,[1]; [8],approximately 24.5%
same,Sorp Mass Change,[1]; Target RH 5.0%,0.00%
same,Sorp Mass Change,[1]; Target RH 15.0%,0.04%
same,Sorp Mass Change,[1]; Target RH 25.0%,0.19%
same,Sorp Mass Change,[1]; Target RH 35.0%,0.40%
same,Sorp Mass Change,[1]; Target RH 45.0%,0.91%
same,Sorp Mass Change,[1]; Target RH 55.0%,1.79%
same,Sorp Mass Change,[1]; Target RH 65.0%,3.15%
same,Sorp Mass Change,[1]; Target RH 75.0%,6.32%
same,Sorp Mass Change,[1]; Target RH 85.0%,14.48%
same,Sorp Mass Change,[1]; Target RH 95.0%,38.97%
same,form change by XRPD,"[2]; post-DVS sample, exposure to increased relative humidity",did not undergo a form change
same,Average % Gemfibrozil dissolved,[3]; 5 min,96.29%
same,Average % Gemfibrozil dissolved,"[3]; 5 min, listed as L-lysine gemfibrozil salt Material A",96.3%
same,Average % Gemfibrozil dissolved,[3]; 10 min,93.51%
same,Average % Gemfibrozil dissolved,[3]; 15 min,94.67%
same,temperature until which weight does not decrease (may be the onset of decomposition),[4],approximately 165 °C
same,Observations,[9],No excess solids

# — patent US20230092359A1, “GEMFIBROZIL FORMULATION” (Polaryx Therapeutics, Inc., priority 2020, published 2023)
